In one assay the test system is Y10 cells. Briefly: Polyploidization of Y10 cells (DNA content by flow cytometry). In kind it is cell-based. The following applies: wild-type (Y10) cells, 72 hours. On the procedure: (§1) FIG. 2 illustrates that SU6656 induces polyploidization and proliferative arrest of megakaryocytic leukemia cells. (A) Y10, (B) GIME, and (C) CMK cells were grown in the presence of TPO, SU6656, or vehicle (DMSO) for 72 hours. DNA content was measured by flow cytometry. The percentages of cells that reach a DNA content of ≧8N are boxed in A and C, those equal to 8N are boxed in B. D) CMK cells were grown as in (C), and cell numbers were enumerated at 0, 24, 48 and 72 h.
(§2) To study how megakaryocytes switch from a proliferative to endomitotic cell cycle, the Src kinase inhibitor SU6656 is being utilized.

In the next assay the test system is GIME cells. Briefly: Polyploidization of GIME cells (DNA content by flow cytometry). The format is cell-based. The following applies: GATA1-null (GIME) cells, 72 hours. Here is the method: (§3) (A) Y10, (B) GIME, and (C) CMK cells were grown in the presence of TPO, SU6656, or vehicle (DMSO) for 72 hours. DNA content was measured by flow cytometry. The percentages of cells that reach a DNA content of ≧8N are boxed in A and C, those equal to 8N are boxed in B. D) CMK cells were grown as in (C), and cell numbers were enumerated at 0, 24, 48 and 72 h.
DNA content was then assessed by flow cytometry. Numbers above the bar indicate % of cells ≧8N. b) After 48 hours, GIME cells from a) were stained with anti-CD42 antibodies and the cell surface expression of CD42 was evaluated by flow cytometry.
as §2

Assay [1] deals with CMK cells. Briefly: Polyploidization of CMK cells (DNA content). The conditions noted are these: GATA1/JAK3 double mutant CMK cell line, 72 hours. In kind it is cell-based, human. Here is the method:
as §3, §2
In collaboration with the Broad Institute, a high throughput screen for small molecules was conducted to identify small molecules that preferentially induce polyploidization or differentiation of megakaryocytes. We screened 10,000 compounds from the Broad's extensive collection of small molecules (including known bioactives, kinase and HDAC inhibitors, and natural products) to identify inducers of megakaryocyte polyploidization. […] 6) Data were analyzed using both MetaXpress software and “Cell Profiler,” software designed at MIT and the Broad Institute. […]

Assay [2] has as its system primary murine megakaryocytes. Briefly: Polyploidization of primary murine megakaryocytes. In kind it is cell-based. The conditions noted are these: data not shown.
From the text: as §2

Assay [3] deals with CMK cells. Briefly: CMK cell proliferation (cell numbers enumerated). In kind it is cell-based, human. The conditions noted are these: CMK cells, 0, 24, 48 and 72 h. On the procedure:
as §1, §2

For assay [4], the system named is wild-type and GATA-1 mutant megakaryocyte progenitors. Briefly: Proliferation of megakaryocyte progenitors. In kind it is cell-based. The following applies: preliminary data. An excerpt: The paradigm for successful, targeted differentiation therapy is the use of all trans retinoic acid (ATRA) for treatment of Acute Promyelocytic Leukemia (APL) (for a review, see (20). Prior to the development of ATRA therapy, the prognosis for patients with APL, which represents 5-10% of adult AML, was very poor. In contrast, the vast majority of APL patients treated with ATRA achieve hematologic remission (21-23). One aim of the current study is to test novel therapeutic strategies for AMKL, in particular, whether the forced induction of MK polyploidization can serve as a “differentiation therapy” for AMKL. […] Furthermore, megakaryocytes are one of the few cell types that are poised to undergo polyploidization during normal maturation.

Assay [5] relates to CMK (human megakaryocytic leukemia) cells. Briefly: High throughput screen for inducers of megakaryocyte polyploidization. The following applies: 10 μM, 72 hours, Hoescht stain, high content imaging. In kind it is cell-based. On the procedure:
In collaboration with the Broad Institute, a high throughput screen for small molecules was conducted to identify small molecules that preferentially induce polyploidization or differentiation of megakaryocytes. We screened 10,000 compounds from the Broad's extensive collection of small molecules (including known bioactives, kinase and HDAC inhibitors, and natural products) to identify inducers of megakaryocyte polyploidization. The screen was performed in the following manner: 1) 4,000 CMK (human megakaryocytic leukemia) cells were plated into each well of a 384-well plate, 2) 100 n1 of compounds (yielding a final concentration of 10 μM) were pinned into the wells, 3) plates were incubated at 37° C. for 72 hours, 4) cells were fixed and stained with Hoescht, and 5) plates were imaged using an ImageXpressMICRO high content imager with 20× objective. Nine images per well were collected. 6) Data were analyzed using both MetaXpress software and “Cell Profiler,” software designed at MIT and the Broad Institute. Seventy-two plates containing duplicates of nearly 10,000 small molecules were screened.

SMILES strings stand for the structures.

The results in this text go back to patent publication US8933071B2, “Dimethyl fasudil for inducing polyploidization of megakaryocytes and for treating blood and bone marrow diseases and disorders” (Northwestern University, priority 2008, dated 2015).

For `CN(C)S(=O)(=O)c1ccc2c(c1)/C(=C/c1cc3c([nH]1)CCCC3)C(=O)N2` [SU6656], the polyploidization result was “efficiently promoted polyploidization” in the assay on Y10 cells, “efficiently promoted polyploidization” with GIME cells, “efficiently promoted polyploidization” in the assay on CMK cells [1] and “promote polyploidization” in assay [2]. The “proliferation (cell numbers)” value in the assay with CMK cells [3] was “cessation of proliferation”. Further, in assay [4], the “proliferation of megakaryocyte progenitors” value is listed as “effectively reduces proliferation”. Also, the “positive in polyploidization screen” value in assay [5] is reported as “positives”.
